Experimental findings from PubChem BioAssay AID1159562 (GlaxoSmithKline (GSK), 2015) are described below.

Calls of active or inactive are those of the source. No rule for the calls is given here. Some results are limits rather than exact numbers.

The experiment has as its system Trypanosoma brucei growth inhibition, luminescence. Briefly: antitrypanosomal activity against T. brucei – luminescence (AID 1159562).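 Also: parasites grew with compound for 24 h before the luminescence read.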
By IC50 is commonly meant the concentration that inhibits the measured activity by half. For `COc1ccc(-c2cc(C)no2)cc1S(=O)(=O)Nc1ccc(F)c(Cl)c1`, the IC50 is 25 µM.
As to `O=C(Nc1nccs1)c1ccccc1Cn1cc([N+](=O)[O-])cn1`, the IC50 is 0.5 µM.
The value for `NC(=O)c1ccccc1Nc1nc(NC2CCCCC2)nc2[nH]ccc12` was 10 µM; that for `CCCc1nc2nc(N)nc(N)c2cc1CC` was 25 µM; that for `O=C(Nc1nc(-c2ccccn2)cs1)c1ccccc1-n1cnnn1` was 0.63 µM.
In the case of `O=C(Nc1nc2ccccc2[nH]1)c1c(O)c2cccc3c2n(c1=O)CC3`, the 50% inhibitory concentration (IC50) is 20 µM.
Regarding `C[C@@H](Oc1cc(-n2cnc3ccc(C(O)CO)cc32)sc1C(N)=O)c1ccccc1C(F)(F)F` (stereo partly drawn), the half-inhibitory concentration (IC50) is 0.79 µM.
In the case of `Cc1nc(-c2nc(NCc3ccc(Cl)cc3)c3cccnc3c2O)n[nH]1`, the IC50 was 0.79 µM.
The value for `COc1cc2c(cc1OC)[C@H]1[C@@H](C)c3ccc(OC)c(OC)c3CN1CC2` was > 40 µM (inactive); that for `CCOc1ccc(NC(=O)c2ccc(NC(=O)NC3CCCCC3)cc2)cc1` was 0.5 µM.
The value for `Cc1ccc(-c2csc(NC(=O)C=Cc3ccc(S(=O)(=O)N4CCOCC4)cc3)n2)o1` was 5 µM; that for `CNC(=O)C1Cc2ccccc2N1C(=O)Cc1ccc(OC)cc1` (stereo not drawn) was 0.5 µM.
Regarding `OCC1CCCCN1c1cc(-c2ccccn2)nc(Nc2ccccc2)n1` (stereo not drawn), the IC50 was 6.3 µM.
As to `Cc1ccc(NC(=O)c2ccc(Cl)c(NC(=O)c3ccc([N+](=O)[O-])cc3)c2)cc1`, the IC50 is 16 µM.
The value for `Cn1nc(C(=O)N2CCc3ccccc32)c2c1CCS(=O)(=O)C2` was 6.3 µM; that for `Cc1cccc(N2CCCN(Cc3c[nH]c4ccccc34)CC2)n1` was 13 µM; that for `Cc1c(CNC(=O)c2ccc(Cn3cc(Cl)c([N+](=O)[O-])n3)cc2)cnn1C` was 10 µM.
`Cc1cc2nc(CN(C)Cc3ncccc3C)[nH]c2cc1C`: the IC50 is 0.63 µM.
Turning to `OC1CCC(Nc2nccc(-c3sc(C4CCOCC4)nc3-c3ccc(F)c(F)c3)n2)CC1` (stereo not drawn), the IC50 is 4 µM.
The value for `COc1ccc(OC)c(NC(=O)c2ccc([N+](=O)[O-])o2)c1` was 0.063 µM; that for `Cc1nnnn1-c1cccc(C(=O)N2CCC[C@@]3(C)c4ncncc4CCC23)c1` (stereo partly drawn) was > 40 µM (inactive).
As for `O=C(COc1ncnc2cc([N+](=O)[O-])ccc12)NC(=O)NC1CCCCC1`, the IC50 is > 40 µM (inactive).
As for `O=c1ccc2ccc(F)c3c2n1C[C@H]3CN1CCN(CC(O)c2cc3c(cn2)OCS3)CC1` (stereo partly drawn), the IC50 was 0.4 µM.
As for `Cc1nc2c(-c3cccs3)c(C)nn2c(NCCO)c1C`, the IC50 was 0.2 µM.
Turning to `Cc1ccccc1CNc1cc(C2CC2)nc(-c2nccn2C)n1`, the IC50 is 1.6 µM.
As for `Cn1nc([N+](=O)[O-])nc1N1CCCCC1`, the IC50 was > 40 µM (inactive).
For the molecule `Cc1[nH]nc(Nc2ccnc3[nH]ccc23)c1C`, the IC50 is 0.25 µM.
In the case of `COc1ccc(C(=O)NC2CCN(CCn3c(=O)ccc4ncc(F)cc43)CC2)cc1Cl`, the IC50 was 0.25 µM.
`C=CCn1nc([N+](=O)[O-])nc1Oc1ccc(Cl)cc1Cl`: the IC50 was > 40 µM (inactive).
`COc1ccc(C(=O)Nc2cc(C(F)(F)F)ccc2N2CCOCC2)c(OC)c1`: the half-maximal inhibitory concentration (IC50) is 25 µM.
`Cn1ccnc1-c1nc(NCc2ccccc2Cl)cc(C2CC2)n1`: the IC50 was 1.6 µM.
Regarding `CN(C)CCOc1ccc(N2CCN(S(=O)(=O)c3ccc(Cl)cc3)CC2)cc1`, the IC50 was 25 µM.
For the molecule `O=C(c1ccccc1)N1CCC(C(=O)N2CCC(Oc3ccccc3Cl)CC2)CC1`, the IC50 was 1 µM.
As for `Cc1[nH]nc(C(F)(F)F)c1NC(=O)CCn1cc(Cl)c([N+](=O)[O-])n1`, the IC50 was 0.79 µM.
Turning to `N#Cc1ccc(Br)cc1[N+](=O)[O-]`, the IC50 is 0.2 µM.
For `Fc1ccc(Nc2nc(-c3ccccn3)cs2)cc1`, the IC50 was 25 µM.
The value for `Nc1ncnc2c1ncn2[C@@H]1O[C@H](CO)C[C@H]1O` was 0.01 µM.
The value for `Clc1ccc(OCCN2CCCCC2c2cccnc2)c(Cl)c1` (stereo not drawn) was > 40 µM (inactive).
In the case of `COc1ccc(NS(=O)(=O)c2cc(NC(=O)Cc3ccc(C)cc3)ccc2N2CCOCC2)cc1`, the half-maximal inhibitory concentration (IC50) was 7.9 µM.
Turning to `C=CCN(Cc1cccs1)C(=O)CSc1nnc(-c2ccc3c(c2)OCO3)o1`, the IC50 is 40 µM.
The value for `CC(c1cc(Cl)cc(Cl)c1)N(C)c1ncc2c(N)nc(N)nc2n1` (stereo not drawn) was 32 µM; that for `O=C(NCc1ccc(-n2cccc2)cc1)c1nc(Cn2ccc([N+](=O)[O-])n2)no1` was > 40 µM (inactive).
Regarding `O=C(Cc1ccccc1)Nc1ccccc1C(=O)Nc1nccs1`, the concentration for half-maximal inhibition (IC50) is 0.25 µM.
As to `Cn1cncc1CN1CCC2(CC1)COC(Cc1ccccc1)C2` (stereo not drawn), the IC50 was > 40 µM (inactive).
In the case of `CCCc1cc(N)nc(-c2cc(CCC)cc(N)n2)c1`, the IC50 is 7.9 µM.
`Cc1cc(C)cc(NS(=O)(=O)c2cc(-c3cc(C)[nH]n3)ccc2C)c1`: the IC50 is 2 µM.
`O=C(CN(Cc1ccccn1)Cc1ccccn1)NCc1ccc2c(c1)OCO2`: the IC50 was 20 µM.
Take `COc1ccc(Nc2nccc(N(C)c3n[nH]c4c(F)cccc34)n2)cc1S(C)(=O)=O`: the IC50 was 10 µM.
`COc1ccc(C(=O)N2CCC(Nc3cccnc3)C2)c(OC)n1` (stereo not drawn): the IC50 is > 40 µM (inactive).
`CN(C)c1ncc(-c2cncn2CCOc2ccc(Cl)cc2)cn1`: the IC50 was > 40 µM (inactive).
As for `CN(C)c1ccc(N)cc1CN(CC1CCCO1)S(C)(=O)=O` (stereo not drawn), the IC50 is > 40 µM (inactive).
Consider `COc1cc(OC)cc(C(=O)N[C@@H](CC(C)C)C(=O)NC2(C#N)CC2)c1`, for which the 50% inhibitory concentration (IC50) was 0.063 µM.
In the case of `CCOc1ccccc1C(=O)Nc1nnc(-c2ccc3c(c2)OCO3)s1`, the IC50 is > 40 µM (inactive).
The value for `Cc1ccc(NC(=O)c2ccnc(N3CCCC3)c2)cc1-c1cc(C(N)=O)ccc1C` was 0.25 µM; that for `Cc1ccc(S(=O)(=O)Cn2nnnc2C(c2cccnc2)N2CCN(c3ccccc3)CC2)cc1` (stereo not drawn) was > 40 µM (inactive).
As to `COc1ccc(NS(=O)(=O)c2cc(NC(=O)c3ccc([N+](=O)[O-])s3)ccc2OC)cc1`, the IC50 is 0.13 µM.
With `COc1ccc(CN(C)Cc2ccncc2)cc1-c1ccc(S(=O)(=O)NC2CCC2)s1`, the IC50 is 20 µM.
Consider `Cc1cc(Nc2ccc(C#N)c(Cl)c2C)n[nH]1`, for which the IC50 was 0.25 µM.
The value for `COc1cc(C2SCC(=O)Nc3c2c(C)nn3-c2nc3ccccc3s2)cc(OC)c1O` (stereo not drawn) was > 40 µM (inactive); that for `CN(Cc1nnnn1C1CCN(Cc2ccc(-n3ccnc3)cc2)CC1)c1ccc(F)cc1F` was > 40 µM (inactive).
As for `Cc1ccc(CNC2CCN(C[C@@H]3Cn4c(=O)ccc5ccc(=O)n3c54)CC2)cc1F`, the IC50 was 2 µM.
Regarding `COc1ccc2nccc([C@H](O)CN3CC[C@H](NC(=O)c4ccc(Br)cc4)[C@@H](O)C3)c2n1`, the IC50 is 0.5 µM.
The value for `O=c1cc(NCCCNC2CCOc3c(I)cc(Cl)cc32)[nH]c2ccccc12` (stereo not drawn) was 0.02 µM.
For `CC(C(=O)Nc1ccccc1F)N(C)CC(=O)Nc1cccc2ccccc12` (stereo not drawn), the IC50 is > 40 µM (inactive).
On to `CCc1cccc(-n2nc(OCC(=O)NC3CCCC3)c3cccnc32)c1`, for which the IC50 is > 40 µM (inactive).
The value for `O=S1N=C(NCCCN(Cc2ccc(F)cc2)c2ccccn2)C(NCc2ccncc2)=N1` (stereo not drawn) was 0.5 µM; that for `Cn1ccnc1CN1CCc2[nH]cnc2C1c1ccccc1OCc1ccccc1` (stereo not drawn) was 0.5 µM; that for `COCCn1c(-c2ccccc2)cnc1NCc1ccccc1OC` was 16 µM.
The value for `CC(C)(C)C(O)(CCc1ccc(Cl)cc1)Cn1cncn1` (stereo not drawn) was > 40 µM (inactive); that for `COc1ccc(-c2cc(C)no2)cc1S(=O)(=O)Nc1ccc(C)c(C)c1` was 20 µM.
With `CC(=Cc1ccccc1)CN1CCC(=O)N(Cc2cccnc2)CC1`, the IC50 is > 40 µM (inactive).
On to `CCOC(=O)c1noc(N)c1-c1ccccc1`, for which the IC50 was 0.63 µM.
For `CN(Cc1nc2ccc(C(=O)NCC3CCCCC3)cc2[nH]1)C1CCCc2cccnc21` (stereo not drawn), the half-maximal inhibitory concentration (IC50) is 0.32 µM.
